Results on four molecules are retold here after patent US12637478B2, “Compound, preparation method thereof, and antibiotic composition comprising same” (priority 2020, dated 2026).

Values after ≈ are worked out from the molar mass of the structure shown. Like-named read-outs stand apart in the source and are kept apart here.

For assay [1], the system named is S. aureus^MS. Nature of the assay: MIC by broth microdilution (aerobic pathogens), test strain 1. It counts as cell-based. The settings on record: Staphylococcus aureus. As for the experimental part: (§1) The antibacterial activity of the compounds of Examples 1 to 48 of the present invention against aerobic pathogens were evaluated by measuring the minimum concentration of the antibiotic capable of inhibiting bacterial growth by 90% compared to the growth of the non-drug treated control group. MIC was measured by the broth microdilution method based on CLSI standards [Reference: Clinical and Laboratory Standards Institute Document. (2000) Methods for Dilution Antimicrobial Susceptibility Test for Bacteria that Grow Aerobically-Fifth Edition: M7-A5. CLSI, Villanova, PA].
(§2) All 13 strains such as methicillin susceptible Staphylococcus aureus (MSSA), methicillin resistant Staphylococcus aureus (MRSA), Vancomycin resistant Staphylococcus aureus (VRSA), Staphylococcus epidermidis, methicillin resistant Staphylococcus epidermidis, Enterococcus faecalis, Vancomycin resistant Enterococcus faecalis, Enterococcus faecium, Vancomycin resistant Enterococcus faecium were used.

Assay [2] has as its system S. aureus^MS. Nature of the assay: MIC by broth microdilution (aerobic pathogens), test strain 2. It counts as cell-based. The settings on record: Staphylococcus aureus. As for the experimental part: as §1, §2
Background: In broth dilution the organism is exposed to a series of concentrations in liquid medium.

For another assay, the system named is S. aureus^MR. Put plainly: MIC by broth microdilution (aerobic pathogens), test strain 3. The format is cell-based, Methicillin resistant Staphylococcus aureus. The settings on record: Staphylococcus aureus. As for the experimental part: as §1, §2
For the next assay, the system named is S. aureus^VR. Put plainly: MIC by broth microdilution (aerobic pathogens), test strain 4. The format is cell-based, Vancomycin resistant Staphylococcus aureus. The note with it: Staphylococcus aureus. The method, then:
as §1, §2

For another assay, the system named is S. epidermis. Nature of the assay: MIC by broth microdilution (aerobic pathogens), test strain 5. It counts as cell-based. The settings on record: Staphylococcus epidermidis. The method, then: as §1, §2
The subject of a further assay is S. epidermis^MR. Nature of the assay: MIC by broth microdilution (aerobic pathogens), test strain 6. It counts as cell-based, Methicillin resistant Staphylococcus epidermidis. The note with it: Staphylococcus epidermidis. As for the experimental part: as §1, §2
A further assay concerns E. faecalis. Put plainly: MIC by broth microdilution (aerobic pathogens), test strain 7. The format is cell-based. The note with it: Enterococcus faecalis. As for the experimental part: as §1, §2
For another assay, the system named is E. faecalis^VanA. Nature of the assay: MIC by broth microdilution (aerobic pathogens), test strain 8. It counts as cell-based, Vancomycin resistant Enterococcus faecalis. The note with it: Enterococcus faecalis. The method, then:
as §1, §2

Another assay deals with E. faecalis^LinR. Put plainly: MIC by broth microdilution (aerobic pathogens), test strain 9. It counts as cell-based, Linezolid resistant Enterococcus faecalis. The settings on record: Enterococcus faecalis. The method, then: as §1, §2
Another assay relates to E. faecium. Put plainly: MIC by broth microdilution (aerobic pathogens), test strain 10. The format is cell-based. The note with it: Enterococcus faecium. As for the experimental part: as §1, §2
Another assay relates to E. faecium^VRE. Nature of the assay: MIC by broth microdilution (aerobic pathogens), test strain 11. It counts as cell-based, Vancomycin resistant Enterococcus faecium. The settings on record: Enterococcus faecium. The method, then:
as §1, §2

The subject of the next assay is E. faecium^LinR. Put plainly: MIC by broth microdilution (aerobic pathogens), test strain 12. The settings on record: Enterococcus faecium. The format is cell-based, Linezolid resistant Enterococcus faecium. The method, then:
as §1, §2

In the next assay the test system is C. difficile 9689. Nature of the assay: MIC by agar dilution against Clostridioides difficile, test strain 13. The format is cell-based. The note with it: test strain 13, C. difficile 9689, anaerobic, agar dilution, read-out: MIC. On the technique in general: Agar dilution tests growth on a series of plates holding different concentrations.
For another assay, the system named is C. difficile 152. Put plainly: MIC by agar dilution against Clostridioides difficile, test strain 14. The note with it: test strain 14, C. difficile 152, anaerobic, agar dilution, read-out: MIC. It counts as cell-based.
For the next assay, the system named is C. difficile 159. Put plainly: MIC by agar dilution against Clostridioides difficile, test strain 15. The settings on record: test strain 15, C. difficile 159, anaerobic, agar dilution, read-out: MIC. It counts as cell-based.
Another assay has as its system C. difficile 161. Put plainly: MIC by agar dilution against Clostridioides difficile, test strain 16. The note with it: test strain 16, C. difficile 161, anaerobic, agar dilution, read-out: MIC. It counts as cell-based.
The test system of the next assay is C. difficile 173. Nature of the assay: MIC by agar dilution against Clostridioides difficile, test strain 17. The note with it: test strain 17, C. difficile 173, anaerobic, agar dilution, read-out: MIC. It counts as cell-based.
The subject of the next assay is C. difficile 174. Nature of the assay: MIC by agar dilution against Clostridioides difficile, test strain 18. It counts as cell-based. The note with it: test strain 18, C. difficile 174, anaerobic, agar dilution, read-out: MIC.
For a further assay, the system named is C. difficile 181. Nature of the assay: MIC by agar dilution against Clostridioides difficile, test strain 19. The format is cell-based. The settings on record: test strain 19, C. difficile 181, anaerobic, agar dilution, read-out: MIC.
Where [3] appears, read: test strain 1, S. aureus^MS, read-out: MIC.
[4] abbreviates: test strain 2, S. aureus^MS, read-out: MIC.
Where [5] appears, read: test strain 3, S. aureus^MR (methicillin resistant), read-out: MIC.
[6] abbreviates: test strain 4, S. aureus^VR (vancomycin resistant), read-out: MIC.
The mark [7] stands for this setting: test strain 5, S. epidermis, read-out: MIC.
The mark [8] stands for this setting: test strain 6, S. epidermis^MR (methicillin resistant), read-out: MIC.
Setting [9] is: test strain 7, E. faecalis, read-out: MIC.
Setting [10] is: test strain 8, E. faecalis^VanA (vancomycin resistant), read-out: MIC.
Where [11] appears, read: test strain 9, E. faecalis^LinR (linezolid resistant), read-out: MIC.
Where [12] appears, read: test strain 10, E. faecium, read-out: MIC.
[13] abbreviates: test strain 11, E. faecium^VRE (vancomycin resistant), read-out: MIC.
[14] abbreviates: test strain 12, E. faecium^LinR (linezolid resistant), read-out: MIC.

Broadly, the MIC is the lowest concentration that inhibits growth of the organism. As to `C/C=C(\NC(=O)c1csc(-c2csc(-c3ccc4c(n3)-c3csc(n3)[C@H]([C@@H](C)O)NC(=O)c3csc(n3)[C@H](C(C)C)NC(=O)c3csc(n3)/C(=C/C)NC(=O)[C@H]([C@@H](C)O)NC(=O)c3csc-4n3)n2)n1)C(=O)NCCN1CCN(C(C)C)CC1` [Compound 47], the MIC with S. aureus^MS [1] (setting [3]) turned out to be 0.5 µg/mL (≈ 0.403 µM); with S. aureus^MS [2] (setting [4]), 0.5 µg/mL (≈ 0.403 µM); in the assay on S. aureus^MR (setting [5]) it was 1 µg/mL (≈ 0.806 µM); with S. aureus^VR (setting [6]), 1 µg/mL (≈ 0.806 µM); in the assay on S. epidermis (setting [7]), 0.5 µg/mL (≈ 0.403 µM); with S. epidermis^MR (setting [8]), 0.5 µg/mL (≈ 0.403 µM). In addition, the MIC in the assay with E. faecalis (setting [9]) worked out at 0.5 µg/mL (≈ 0.403 µM); in the assay on E. faecalis^VanA (setting [10]) it was 0.5 µg/mL (≈ 0.403 µM); with E. faecalis^LinR (setting [11]) it was 1 µg/mL (≈ 0.806 µM); with E. faecium (setting [12]) it was 0.5 µg/mL (≈ 0.403 µM); with E. faecium^VRE (setting [13]), 1 µg/mL (≈ 0.806 µM); in the assay on E. faecium^LinR (setting [14]) it was 1 µg/mL (≈ 0.806 µM).
For `C/C=C(\NC(=O)c1csc(-c2csc(-c3ccc4c(n3)-c3csc(n3)[C@H]([C@@H](C)O)NC(=O)c3csc(n3)[C@H](C(C)C)NC(=O)c3csc(n3)/C(=C/C)NC(=O)[C@H]([C@@H](C)O)NC(=O)c3csc-4n3)n2)n1)C(=O)NCCCN1CCOCC1` [Compound 48], the minimal inhibitory concentration (MIC) in the assay with S. aureus^MS [1] (setting [3]) was determined as 0.5 µg/mL (≈ 0.412 µM); with S. aureus^MS [2] (setting [4]), 0.5 µg/mL (≈ 0.412 µM); in the assay on S. aureus^MR (setting [5]), 1 µg/mL (≈ 0.824 µM); with S. aureus^VR (setting [6]), 1 µg/mL (≈ 0.824 µM); with S. epidermis (setting [7]), 0.5 µg/mL (≈ 0.412 µM); in the assay on S. epidermis^MR (setting [8]), 0.5 µg/mL (≈ 0.412 µM). Also, the minimal inhibitory concentration (MIC) in the assay on E. faecalis (setting [9]) stood at 0.5 µg/mL (≈ 0.412 µM); in the assay on E. faecalis^VanA (setting [10]) it was 0.5 µg/mL (≈ 0.412 µM); with E. faecalis^LinR (setting [11]), 1 µg/mL (≈ 0.824 µM); in the assay on E. faecium (setting [12]), 0.5 µg/mL (≈ 0.412 µM); in the assay with E. faecium^VRE (setting [13]), 1 µg/mL (≈ 0.824 µM); with E. faecium^LinR (setting [14]) it was 1 µg/mL (≈ 0.824 µM).
As for `CC(=O)NC[C@H]1CN(c2ccc(N3CCOCC3)c(F)c2)C(=O)O1` [Lin, Linezolid, reference compound], the minimal inhibitory concentration (MIC) amounted to 2 µg/mL (≈ 5.93 µM) in the assay on S. aureus^MS [1] (setting [3]); 1 µg/mL (≈ 2.96 µM) in the assay on S. aureus^MS [2] (setting [4]); 4 µg/mL (≈ 11.9 µM) in the assay on S. aureus^MR (setting [5]); 8 µg/mL (≈ 23.7 µM) in the assay with S. aureus^VR (setting [6]); 1 µg/mL (≈ 2.96 µM) with S. epidermis (setting [7]); 1 µg/mL (≈ 2.96 µM) in the assay with S. epidermis^MR (setting [8]). Moreover, the MIC turned out to be 2 µg/mL (≈ 5.93 µM) in the assay on E. faecalis (setting [9]); 2 µg/mL (≈ 5.93 µM) in the assay with E. faecalis^VanA (setting [10]); 64 µg/mL (≈ 190 µM) in the assay on E. faecalis^LinR (setting [11]); 4 µg/mL (≈ 11.9 µM) in the assay on E. faecium (setting [12]); 2 µg/mL (≈ 5.93 µM) in the assay on E. faecium^VRE (setting [13]); 32 µg/mL (≈ 94.9 µM) in the assay with E. faecium^LinR (setting [14]).
For `CN[C@H](CC(C)C)C(=O)N[C@H]1C(=O)N[C@@H](CC(N)=O)C(=O)N[C@H]2C(=O)N[C@H]3C(=O)N[C@H](C(=O)N[C@H](C(=O)O)c4cc(O)cc(O)c4-c4cc3ccc4O)[C@H](O)c3ccc(c(Cl)c3)Oc3cc2cc(c3O[C@@H]2O[C@H](CO)[C@@H](O)[C@H](O)[C@H]2O[C@H]2C[C@](C)(N)[C@H](O)[C@H](C)O2)Oc2ccc(cc2Cl)[C@H]1O` [Van, Vancomycin, reference compound], the minimum inhibitory concentration (MIC) against S. aureus^MS [1] is 0.5 µg/mL (≈ 0.345 µM); against S. aureus^MS [2], 0.25 µg/mL (≈ 0.173 µM); against S. aureus^MR, 0.5 µg/mL (≈ 0.345 µM); in the assay with S. aureus^VR it was over 128 µg/mL; in the assay on S. epidermis, 1 µg/mL (≈ 0.69 µM); against S. epidermis^MR, 0.5 µg/mL (≈ 0.345 µM). For the same molecule, the MIC in the assay on E. faecalis was 1 µg/mL (≈ 0.69 µM); against E. faecalis^VanA, over 128 µg/mL; against E. faecalis^LinR it was 1 µg/mL (≈ 0.69 µM); in the assay on E. faecium, 0.5 µg/mL (≈ 0.345 µM); with E. faecium^VRE (VRE) it was over 128 µg/mL; in the assay with E. faecium^LinR it was 0.5 µg/mL (≈ 0.345 µM). The MIC came to 2 µg/mL (≈ 1.38 µM) in the assay with C. difficile 9689; 1 µg/mL (≈ 0.69 µM) with C. difficile 152; 2 µg/mL (≈ 1.38 µM) in the assay on C. difficile 159; 1 µg/mL (≈ 0.69 µM) in the assay with C. difficile 161; 0.5 µg/mL (≈ 0.345 µM) with C. difficile 173; 0.5 µg/mL (≈ 0.345 µM) with C. difficile 174. In addition, in the assay on C. difficile 181, the MIC turned out to be 0.5 µg/mL (≈ 0.345 µM).
